Patent US8722868B2, “Glycosyltransferase, novel glycosyltransferase gene, and novel sugar donor compound” (National University Corporation Tokyo University of …, priority 2009, dated 2014)

What was measured:
[1] = target: T1, enzyme purified from pink petals of a carnation (variety: "Beam Cherry") (glycosyltransferase) (Dianthus caryophyllus, UniProt E3W9M2); assay: Relative activity of glycosyltransferase purified from carnation on each sugar donor (HPLC); assay type: biochemical; conditions: purified enzyme 135 ng, cyanidin 3-glucoside 200 μM, sugar donor 500 μM, citric acid buffer pH 5.6, 30° C., 15 minutes; HPLC area of cyanidin 3,5-O-β-diglucoside
T1 construct: the enzyme comprising 502 amino acid residues was translated, followed by amino acid removal via processing; from tissue; host or cells: petals of carnation, variety Beam Cherry
T1 sequence (E3W9M2 31-502): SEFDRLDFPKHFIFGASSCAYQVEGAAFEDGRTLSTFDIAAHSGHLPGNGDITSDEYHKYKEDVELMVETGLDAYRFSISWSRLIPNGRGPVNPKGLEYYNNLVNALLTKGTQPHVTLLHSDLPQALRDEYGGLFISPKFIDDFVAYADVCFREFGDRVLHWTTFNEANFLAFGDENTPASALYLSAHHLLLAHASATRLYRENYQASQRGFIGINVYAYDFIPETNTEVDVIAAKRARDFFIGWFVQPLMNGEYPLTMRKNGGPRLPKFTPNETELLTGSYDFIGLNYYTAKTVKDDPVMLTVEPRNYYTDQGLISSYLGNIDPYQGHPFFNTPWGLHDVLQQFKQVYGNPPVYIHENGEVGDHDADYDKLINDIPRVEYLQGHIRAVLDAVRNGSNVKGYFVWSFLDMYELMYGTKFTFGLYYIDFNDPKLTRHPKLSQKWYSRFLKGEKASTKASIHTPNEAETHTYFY
Procedure: An enzyme reaction was carried out at 30° C. for 15 minutes using an enzyme (135 ng) purified from pink petals of a carnation (variety: “Beam Cherry”) by the method described in Example 2 ((1) and (2)), cyanidin 3-glucoside (200 μM), and a sugar donor (1-O-β-D-vanillyl glucose or any of 1-O-β-D-p-coumaryl glucose, 1-O-β-D-caffeyl glucose, 1-O-β-D-feruloyl glucose, and 1-O-β-D-sinapoyl glucose that had been enzymatically synthesized according to the method described in Matsuba Y et al., Plant Biotechnology vol. 25, No. 4 (2008) pp. 369-375) (500 μM) in a reaction solution adjusted to 30 μl with the addition of a citric acid buffer (pH 5.6). A 20% phosphoric acid aqueous solution was added to the reaction liquid so as to result in a final phosphoric acid concentration of 1%. Thus, the reaction was terminated, followed by centrifugation. The resulting supernatant was subjected to separation using a HPLC column (Chromolith SpeedROD, 4.6×50 mm, Merck), eluent A (a 1.5% phosphoric acid aqueous solution), and eluent B (a 90% methanol aqueous solution) with a linear gradient of 18% to 28% liquid B (flow rate: 3.0 ml/min, 520 nm) (5 minutes), followed by analysis. The relative activity of the enzyme on each sugar donor was determined by calculating the area of the reaction product (cyanidin 3,5-O-β-diglucoside) on an HPLC chromatogram at a wavelength of 505 nm.

[2] = target: T2, glycosyltransferase in crude enzyme liquid from pink carnation petals (Dianthus caryophyllus, UniProt E3W9M2); assay: Detection of glycosyl transfer reaction with carnation petal crude enzyme liquid (HPLC); assay type: biochemical; conditions: pH 5.6, 30° C.
T2 construct: Thus, a crude enzyme liquid was obtained; from tissue; host or cells: pink petals of carnation, variety Beam Cherry (ammonium sulfate precipitate, desalted)
T2 sequence (E3W9M2 31-502): T1 sequence (E3W9M2 31-502)
Procedure: Pink petals of a carnation (variety: “Beam Cherry”) were ground into a powder in liquid nitrogen using a mortar and a pestle. The obtained powder was added in a stepwise manner to a 50 mM potassium phosphate buffer (pH 7.2) and dissolved therein via stirring to prevent freezing. Then, an insoluble fraction was removed by centrifugation. A saturate ammonium sulfate solution was added to the obtained supernatant so as to result in a concentration of 80%. The mixture was left on ice for 5 minutes. The precipitated protein was collected by centrifugation. A 10 mM potassium phosphate buffer was added thereto for complete dissolution. The obtained solution was applied to a Sephadex G-25 gelfiltration support (GE Healthcare) for desalting. Thus, a crude enzyme liquid was obtained. […]
Glycosyltransferase activity was examined using a crude enzyme extracted from pink petals of a carnation (variety: “Beam Cherry”) or petals of a delphinium (variety: “marine blue”) in the manner described in Example 1. […] Then, the supernatant was analyzed by HPLC. […]

SMILES	Relative activity of an enzyme on a sugar donor (when synthetic 1-O-β-vanillyl glucose is set as 100) [1]	Function as sugar donor (generation of cyanidin 3,5-O-β-diglucoside from cyanidin 3-glucoside) ([2]; carnation crude enzyme liquid, 40 minutes)	Recognition as sugar donor by carnation glycosylation enzyme ([2]; carnation crude enzyme, cyanidin 3-O-β-glucoside 200 μM, sugar donor 1 mM, 15 minutes)
COc1cc(C(=O)OC2OC(CO)C(O)C(O)C2O)ccc1O (stereo not drawn)	100	functions as a sugar donor	–
O=C(OC1OC(CO)C(O)C(O)C1O)c1ccc(O)cc1 (stereo not drawn) [1-O-β-p-hydroxybenzoyl glucose]	–	–	recognize 1-O-β-p-hydroxybenzoyl glucose as a sugar donor
